The text below walks through data of US7396682B2, “Method for cell adhesion and wound healing” (Regen Biotech, Inc., priority 2000, dated 2008).

For assay [1], the system named is K562 cells. As to the kind of experiment: K562 cell adhesion to coated proteins (hexosaminidase analysis). The format is cell-based. The following applies: 1 hour. Here is the method:
For another control experiment, K562 cells, known to express α5, but not α3 integrin, were used. K562 cells were inoculated onto plates coated with βigh3-WT, fibronectin, laminin, or type I collagen and incubated for 1 hour, followed by the hexosaminidase analysis.

The test system of assay [2] is circular dermal whole layer wounds on the back of each rat. As to the kind of experiment: Wound healing with chitosan base composites on dermal whole layer wounds (7 mm) of rats. The format is in vivo. The following applies: chitosan base with 500 μg/ml protein, Mean ± S.D. The protocol: Adult Spraque-Dawley lineage rats with a body weight of 250-300 gm were raised with standard feedstuff at a constant temperature and humidity.
In test group 2, four circular dermal whole layer wounds were made on the back of each rat and coated with chitosan bases combined with materials of interest:
2-A: wound coated with chitosan base only
2-B: wound coated with chitosan base in combination with 500 μg/ml of fibronectin
2-E: wound coated with chitosan base in combination with 500 μg/ml of βig-h3 D-IV 3X protein
2-F: wound coated with chitosan base in combination with 500 μg/ml of βig-h3 D-IV 4X protein
The composites based on chitosan were prepared as follows. 1 g of water soluble chitosan (poly(1-4) 2-amino-2-deoxy-β-D-glucan) with a molecular weight of 600,000 Da was dissolved in 100 ml of sterile distilled water and the resulting 1% solution was dispensed in aliquot of 2 ml to 12-well plate (Corning, USA), followed by the addition of 100 μg of gentamycin per well. Fibronectin, βigh3-D-IV 3X, and βigh3-D-IV 4X were individually added to a concentration of 500 μg/ml and frozen at −70° C., followed by freeze-drying in a freeze drier (Ilshin) for 12 hours to give disc-shaped composites.
The backs of etherized rats were shaved, followed by sterilizing the shaved region with betadin solution. Penetrating the whole dermal layers, four circular wounds with a diameter of 7 mm were formed on the back of each rat. The wounds were covered with composites used for test groups 2-A, 2-B, 2-E and 2-F, respectively, and then with Tegaderm® (3M) and lightly bandaged. The composites were changed with fresh ones every three days.
Wound healing effects were evaluated by determining appearances of the wounds as in Example 4-2.

Assay [3] deals with HCE cells. Nature of the assay: Inhibition assay of HCE cell adhesion using matrix peptides and reagents. Type of assay: cell-based, human. Particulars: HCE cells preincubated 30 min with reagent; for inhibition of cell adhesion to fibronectin: dishes coated with 10 μg/ml fibronectin; for inhibition of cell adhesion to βig-h3: dishes coated with 10 μg/ml βig-h3. The protocol:
In order to identify cell surface receptors involved in the cell adhesion activity of βig-h3 protein, an inhibition assay was performed using various reagents.
Initially, plastic culture dishes were coated with 10 μg/ml fibronectin, βigh3-WT or βigh3-ΔRGD. HCE cells were preincubated for 30 min in media containing 5 mM EDTA, 100 μg/ml βigh3-WT, 100 μg/ml βigh3-ΔRGD, 1 mM RGD, 1 mM RGE or 100 μg/ml fibronectin, or none of them, and then assayed for cell adhesion as in Example 1.

For assay [4], the system named is dermal whole layer wounds on the backs of rats. As to the kind of experiment: Wound healing with ointment bases on dermal whole layer wounds (2 cm) of rats. The following applies: for wound area: ointment 100 μg/ml, 1 g per day, mean. The arrangement: key to Formation grade of collagenous fibers at wound: 0: negative; 1+: insignificant; 2+: scatteringly formed; 3+: very dense; key to Re-ephithelialization of Wound (grade): 0: zero was set for the formation of no epithelial layers; 1+ for initiation of epithelialization; 2+ for incomplete epithelial layer structure; 3+ for complete epithelial layer structure. Type of assay: in vivo, rat. The protocol:
To compare wound healing activity between the recombinant βig-h3 protein His-β-b, which contains all of the four fas-1 domains, like native βig-h3 protein, and the recombinant βig-h3 protein βigh3-D-IV, which contains the 4th domain alone, ointment bases comprising the recombinant proteins were tested as follows.
Four dermal whole layer wounds, each 2 cm in diameter, were made on the backs of rats and divided into test groups 1-A, 1-B, 1-C and 1-D according to the ointment applied thereto.
1-A: coated at a dose of 1 gm per day with an ointment base combined with no materials.
1-B: coated at a dose of 1 gm per day with an ointment in which fibronectin was combined at a concentration of 100 μg/ml with a base.
1-C: coated at a dose of 1 g per day with an ointment in which Hisβ-b protein was combined at a concentration of 100 μg/ml with a base.
1-D: coated at a dose of 1 g per day with an ointment in which βigh3-D-IV protein was combined at a concentration of 100 μg/ml with a base.
The backs of etherized rats were shaved, followed by sterilizing the shaved region with betadin solution. In test group 1, the back of each rat was cut by use of a No. 15 surgical blade to form four circular wounds with a diameter of 2 cm penetrating the whole dermal layers. Ointments for test groups 1-A, 1-B, 1-C and 1-D were applied at an amount of about 1 g to the wounds which were then covered with a synthetic dressing (Tegaderm® 3M) and lightly bandaged. Application of ointments was performed once every day.
With a base of an aqueous material (SamA base), each of the ointments contained, per 1 g, spermaceti 38 mg, stearyl alcohol 116 mg, polyethylglycol 38 mg, conc. glycerin 192 mg, ethanol 23 mg, […], ethyl paraoxybenzoate 0.87 mg, butyl paraoxybenzoate 0.12 mg, and purified water.
First, morphologies of wounds were observed. The same scale was positioned near each wound and pictures were taken at the same distance from each wound. Pictures were scanned in a computer and used to measure areas of the wounds with the aid of NIH image analysis system (Bio-Optics). To take the pictures, the muscle was completely relaxed by etherizing the rats. Measurements were performed once every other day until the 22nd day. For comparing test groups, the measured values were analyzed according to ANOVA test and Scheffer's test.
Histological analysis was conducted under an optical microscope. Biopsies of wound sites were taken at days 3, 7, 10, 14 and 20, and fixed in 10% formalin and solidified with paraffin. 6 μm slices of the samples were dyed with hematoxylin-eosin (H&E) and Masson's trichrome before observation under a microscope. Wound healing effects according to time of each test material were evaluated through re-epithelialization and formation of collagenous fibers. In the case of re-epithelialization, epithelial formation was semi-quantified in such a way that zero was set for the formation of no epithelial layers, 1+ for initiation of epithelialization, 2+ for incomplete epithelial layer structure, and 3+ for complete epithelial layer structure. Regarding comparison among test groups and differences according to time within each group, measured values were statistically analyzed using ANOVA test and Scheffe's test. As for collagenous fiber formation, it was graded as 1+ for insignificant formation of collagenous fibers as observed with trichrome dye, 2+ for scatteringly spaced collagenous fibers, and 3+ for dense collagenous fibers.

For assay [5], the system named is Human corneal epithelial (HCE) cells. Nature of the assay: HCE cell adhesion and spreading assay on protein-coated plates. The format is cell-based. The following applies: HCE cells on coated protein, 1 hour at 37° C. The protocol:
Human corneal epithelial (HCE) cells used in this assay were cultured in DMEM ([…], Gibco BRL) supplemented with 15% fetal bovine serum, Gentamicin (40 μg/ml), insulin (5 μg/ml), cholera toxin (0.1 μg/ml) and human epidermal growth factor (hEGF) at 37° C. in 5% CO2.
The cell adhesion assay was performed as follows. First, the recombinant βig-h3 proteins or other extracellular matrix proteins were let to adhere to the bottoms of 96-well microculture plates (Falcon) by incubation at 37° C. for 1 hour and blocked with PBS containing 0.2% BSA. The coated extracellular matrix proteins were human plasma vitronectin (Promega), purified human plasma fibronectin (pFN), chicken collagen types I and II (Chemicon International Inc.), bovine collagen types IV and VI (Chemicon), mouse laminin (Chemicon), and bovine serum albumin (BSA) (Sigma). Cells were trypsinized and suspended in the culture media at a density of 2×10^5 cells/ml. 0.1 ml of the cell suspension was added to each well of the plates coated with the recombinant proteins.
Following incubation at 37° C. for 1 hour, unattached cells were removed by rinsing with PBS. Attached cells were incubated for 1 hour at 37° C. in 50 mM citrate buffer, pH 5.0, containing 3.75 mM p-nitrophenol-N-acetyl 1-β-D-glycosaminide as a hexosaminidase substrate and 0.25% Triton X-100, followed by the addition of 50 mM glycine buffer, pH 10.4, containing 5 mM EDTA to block the enzyme activity. A measurement was made of absorbance at 405 nm in a Multiskan MCC/340 microplate reader.
To determine cell area as an index for cell adhesion activity, 4×10^4 cells were applied to substrates in 48-well culture plates. The attached cells were fixed weith 8% glutaraldehyde (Sigma) and then stained with 0.25% Crystal Violet (Sigma) in 20% methanol. Measurement of cell areas was performed by Image-Pro plus software (Media Cybernetics). Experiments were repeated in triplicate with 200 or 300 measurements per site for each experiment. Data is reported as the mean area at specific time points±standard error of mean.

“Fibronectin: positive control; purified human plasma fibronectin in cell assays, purified from citrated rat plasma for wound tests”: the “adhesion of K562 cells to coated protein” value in assay [1] is recorded as “adhered”. Moreover, the Remaining wound area in assay [2] (Day 0) is 49.2 ± 0.5 mm^2; in assay [2] (Day 3) it was 24.1 ± 0.6^b mm^2; in assay [2] (Day 6), 12.9 ± 0.6^b mm^2; in assay [2] (Day 9) it was 9.7 ± 0.8^b mm^2; in assay [2] (Day 12), 3.2 ± 0.4^b mm^2; in assay [2] (Day 15), 0.8 ± 0.2^b mm^2. Further, in assay [3], the “inhibition of cell adhesion to fibronectin” value is “significantly inhibited”. Moreover, the “inhibition of cell adhesion to βig-h3” value in assay [3] is “partially inhibited”. In addition, the wound area in assay [4] (Day 0) was found to be 3.17; in assay [4] (Day 2) it was 2.38 cm²; in assay [4] (Day 4), 2.01; in assay [4] (Day 6) it was 1.83; in assay [4] (Day 8), 1.39 cm²; in assay [4] (Day 10), 1.26 cm². Further, the wound area was found to be 0.54 in assay [4] (Day 12); 0.39 in assay [4] (Day 14); 0.25 in assay [4] (Day 16); 0.16 in assay [4] (Day 18); 0.12 in assay [4] (Day 20); 0.06 in assay [4] (Day 22). Besides, the “Formation grade of collagenous fibers at wound” value in assay [4] (Day 3) was 1+; in assay [4] (Day 7) it was 2+; in assay [4] (Day 10), 2+; in assay [4] (Day 14), 3+; in assay [4] (Day 20), 3+. Further, the “Re-ephithelialization of Wound (grade)” value in assay [4] (Day 3) is reported as 0; in assay [4] (Day 7), 1+; in assay [4] (Day 10), 1+; in assay [4] (Day 14), 2+; in assay [4] (Day 20) it was 3+. Besides, the “reduction in wound area compared with ointment base alone” value in assay [4] (ointment application, p<0.05 versus group I-A) is listed as “more quickly reduced”. Besides, the completion of re-epithelialization in assay [4] (optical microscope) was found to be 20 days.

B1: βigh3-WT: wild-type human recombinant βig-h3 protein (SEQ ID NO: 22) (protein, UniProt Q15582 24-683, looked up)
Transforming growth …: GPAKSPYQLVLQHSRLRGRQHGPNVCAVQKVIGTNRKYFTNCKQWYQRKICGKSTVISYECCPGYEKVPGEKGCPAALPLSNLYETLGVVGSTTTQLYTDRTEKLRPEMEGPGSFTIFAPSNEAWASLPAEVLDSLVSNVNIELLNALRYHMVGRRVLTDELKHGMTLTSMYQNSNIQIHHYPNGIVTVNCARLLKADHHATNGVVHLIDKVISTITNNIQQIIEIEDTFETLRAAVAASGLNTMLEGNGQYTLLAPTNEAFEKIPSETLNRILGDPEALRDLLNNHILKSAMCAEAIVAGLSVETLEGTTLEVGCSGDMLTINGKAIISNKDILATNGVIHYIDELLIPDSAKTLFELAAESDVSTAIDLFRQAGLGNHLSGSERLTLLAPLNSVFKDGTPPIDAHTRNLLRNHIIKDQLASKYLYHGQTLETLGGKKLRVFVYRNSLCIENSCIAAHDKRGRYGTLFTMDRVLTPPMGTVMDVLKGDNRFSMLVAAIQSAGLTETLNREGVYTVFAPTNEAFRALPPRERSRLLGDAKELANILKYHIGDEILVSGGIGALVRLKSLQGDKLEVSLKNNVVSVNKEPVAEPDIMATNGVVHVITNVLQPPANRPQERGDELADSALEIFKQASAFSRASQRSVRLAPVYQKLLERMKH
Turning to B1, the “adhesion of K562 cells to coated protein” value in assay [1] is “did not adhere”. Also, in assay [5], the “cell adhesion and spreading activity (numbers and surface areas of attached HCE cells)” value is recorded as “clearly greater than those attached to albumin”. Moreover, in assay [3], the “inhibition of cell adhesion to fibronectin” value is listed as “partially inhibited” and the “inhibition of cell adhesion to βig-h3” value was “significantly inhibited”.
